{"source": "paper PMC6811774", "about": "“Potent, selective, and subunit‐dependent activation of TRPC5 channels by a xanthine derivative” (British Journal of Pharmacology, 2019)", "type_in_all_cases": "cell-based", "key": {"TRPC4:C1 channels": {"target": "TRPC4:C1 channels (Homo sapiens, UniProt P48995+Q9UBN4)", "sequence (Q9UBN4 whole entry)": "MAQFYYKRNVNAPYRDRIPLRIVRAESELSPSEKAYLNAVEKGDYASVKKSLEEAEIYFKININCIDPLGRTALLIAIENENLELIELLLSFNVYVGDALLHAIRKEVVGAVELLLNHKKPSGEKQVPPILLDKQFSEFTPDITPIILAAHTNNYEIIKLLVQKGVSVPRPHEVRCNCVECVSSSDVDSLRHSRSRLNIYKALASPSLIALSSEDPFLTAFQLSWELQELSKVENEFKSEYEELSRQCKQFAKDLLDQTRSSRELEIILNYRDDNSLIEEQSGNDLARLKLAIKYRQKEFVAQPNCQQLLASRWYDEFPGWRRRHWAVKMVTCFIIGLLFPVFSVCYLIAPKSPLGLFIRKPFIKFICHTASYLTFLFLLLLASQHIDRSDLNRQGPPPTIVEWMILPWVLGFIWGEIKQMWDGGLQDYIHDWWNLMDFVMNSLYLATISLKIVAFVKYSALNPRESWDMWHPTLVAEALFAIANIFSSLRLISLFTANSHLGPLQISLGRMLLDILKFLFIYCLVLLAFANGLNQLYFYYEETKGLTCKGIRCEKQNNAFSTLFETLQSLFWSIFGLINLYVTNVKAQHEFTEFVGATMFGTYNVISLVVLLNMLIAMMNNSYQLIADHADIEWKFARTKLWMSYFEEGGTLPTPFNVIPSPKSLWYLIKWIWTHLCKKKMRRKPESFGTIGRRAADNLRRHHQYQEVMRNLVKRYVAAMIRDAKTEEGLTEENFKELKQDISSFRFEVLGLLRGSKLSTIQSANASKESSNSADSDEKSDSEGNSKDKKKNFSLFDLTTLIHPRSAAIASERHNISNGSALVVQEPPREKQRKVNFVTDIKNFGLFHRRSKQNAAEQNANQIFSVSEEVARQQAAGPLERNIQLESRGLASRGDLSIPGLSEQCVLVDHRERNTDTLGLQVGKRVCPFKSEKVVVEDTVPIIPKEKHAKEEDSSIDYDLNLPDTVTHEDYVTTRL", "sequence (P48995 whole entry)": "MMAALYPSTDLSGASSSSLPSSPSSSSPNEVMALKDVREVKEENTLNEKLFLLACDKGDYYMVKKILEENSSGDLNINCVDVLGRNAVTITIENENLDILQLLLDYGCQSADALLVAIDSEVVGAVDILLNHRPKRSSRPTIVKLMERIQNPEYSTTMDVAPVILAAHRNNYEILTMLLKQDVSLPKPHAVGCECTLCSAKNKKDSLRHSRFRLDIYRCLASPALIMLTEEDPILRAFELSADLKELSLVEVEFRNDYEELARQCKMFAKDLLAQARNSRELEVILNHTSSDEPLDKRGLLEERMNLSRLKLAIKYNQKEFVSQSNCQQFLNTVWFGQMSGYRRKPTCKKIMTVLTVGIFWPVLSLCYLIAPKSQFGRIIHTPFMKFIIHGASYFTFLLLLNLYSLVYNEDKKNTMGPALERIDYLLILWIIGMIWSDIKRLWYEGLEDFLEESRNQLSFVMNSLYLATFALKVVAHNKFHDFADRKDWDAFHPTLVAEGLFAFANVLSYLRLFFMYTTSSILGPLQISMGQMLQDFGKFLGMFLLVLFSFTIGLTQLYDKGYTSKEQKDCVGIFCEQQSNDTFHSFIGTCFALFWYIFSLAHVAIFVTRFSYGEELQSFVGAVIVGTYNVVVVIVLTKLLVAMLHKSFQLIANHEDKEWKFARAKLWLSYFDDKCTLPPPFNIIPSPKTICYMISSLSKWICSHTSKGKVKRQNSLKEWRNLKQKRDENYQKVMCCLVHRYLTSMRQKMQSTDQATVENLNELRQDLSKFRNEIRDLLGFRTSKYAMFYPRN", "assay": "[Ca2+]i measurement in (Tet+) HEK T-REx cells expressing hTRPC4-C1 concatemer", "protocol": "(§1) HEK T‐REx™ cell line was transfected with TRPC5‐SYFP2 or TRPC4‐SYFP2 using FuGENE® HD transfection reagent. After 48 hr, cells were put under antibiotic selection using 400 μg·ml^−1 zeocin and 10 μg·ml^−1 blasticidin S (Invivogen, San Diego, California, USA). Medium changes were carried out regularly to remove dead cells. HEK T‐REx cells expressing tetracycline‐inducible human TRPC5, TRPC4–C1, and TRPC5–C1 were created as described previously (Akbulut et al., 2015; Ludlow et al., 2017; Rubaiy, Ludlow, Henrot, et al., 2017). TRPC5–C1 and TRPC4–C1 concatemers allow expression of functional channels with defined 2:2 stoichiometry that display ion permeability and current–voltage relationships distinct from those of homomeric TRPC4:C4 or TRPC5:C5 channels and consistent with those obtained upon co‐expression of TRPC1 with TRPC4 or TRPC5 (Ludlow et al., 2017; Rubaiy, Ludlow, Bon, & Beech, 2017; Rubaiy, Ludlow, Henrot, et al., 2017). Cells were cultured in DMEM‐F12 GlutaMAX (Invitrogen, Paisley, UK) containing 10% FBS (Sigma‐Aldrich, Gillingham, UK), with the addition of blasticidin (10 μg·ml^−1) and zeocin (400 μg·ml^−1) to maintain the stable incorporation of the tetracycline repressor and the channel of interest, respectively. Expression of proteins was induced by the addition of tetracycline (1 μg·ml^−1, 24 hr). Cells were maintained in a humidified incubator with 5% CO2 at 37°C. HEK 293 cells stably expressing tetracycline‐regulated human http://www.guidetopharmacology.org/GRAC/ObjectDisplayForward?objectId=494 were prepared similarly and have also been described previously (McHugh, Flemming, Xu, Perraud, & Beech, 2003). For experiments using transient co‐expression of TRPC1 and TRPC5, HEK cells at 40–60% confluency were transfected with pIRES2‐AcGFP1 and pIRES2‐DsRed‐Express2 plasmids containing human TRPC1 and TRPC5, respectively, using Lipofectamine 3000 (ThermoFisher Scientific, Yokohama, Japan). All experiments using transient expression were performed within 48 hr after transfection. […]"}, "TRPC1:C5 channels": {"target": "T1, TRPC1:C5 channels (Homo sapiens, UniProt P48995+Q9UL62)", "T1 construct": "expressed in transfected cells; host or cells: HEK 293 (transient, Lipofectamine 3000)", "T1 sequence (Q9UL62 whole entry)": "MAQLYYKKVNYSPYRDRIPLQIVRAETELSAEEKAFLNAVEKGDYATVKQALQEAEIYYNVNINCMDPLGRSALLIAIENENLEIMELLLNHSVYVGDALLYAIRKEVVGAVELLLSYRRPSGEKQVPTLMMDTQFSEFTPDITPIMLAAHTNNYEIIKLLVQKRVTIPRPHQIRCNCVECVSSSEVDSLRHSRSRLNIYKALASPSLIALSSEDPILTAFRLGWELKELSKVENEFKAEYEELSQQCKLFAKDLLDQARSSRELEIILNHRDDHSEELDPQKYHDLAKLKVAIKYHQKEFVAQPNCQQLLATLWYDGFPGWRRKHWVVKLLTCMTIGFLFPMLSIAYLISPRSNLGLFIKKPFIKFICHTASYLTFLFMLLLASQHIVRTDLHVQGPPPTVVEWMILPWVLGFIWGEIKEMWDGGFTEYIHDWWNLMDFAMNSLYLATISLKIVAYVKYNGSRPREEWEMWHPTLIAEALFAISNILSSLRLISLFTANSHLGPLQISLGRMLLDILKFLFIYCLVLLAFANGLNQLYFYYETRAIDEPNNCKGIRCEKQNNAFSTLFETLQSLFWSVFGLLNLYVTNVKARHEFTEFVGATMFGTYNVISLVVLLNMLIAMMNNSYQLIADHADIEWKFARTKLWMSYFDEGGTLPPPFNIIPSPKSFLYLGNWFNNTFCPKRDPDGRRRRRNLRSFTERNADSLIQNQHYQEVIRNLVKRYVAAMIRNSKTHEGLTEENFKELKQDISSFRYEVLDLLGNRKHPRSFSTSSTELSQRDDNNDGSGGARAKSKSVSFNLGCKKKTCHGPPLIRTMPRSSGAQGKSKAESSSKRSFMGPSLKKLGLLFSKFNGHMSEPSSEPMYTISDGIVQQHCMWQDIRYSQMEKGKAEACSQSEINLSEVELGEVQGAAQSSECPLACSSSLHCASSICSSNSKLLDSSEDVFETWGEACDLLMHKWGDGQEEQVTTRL", "T1 sequence (P48995 whole entry)": "as the sequence (P48995 whole entry) above", "assay": "Excised outside-out patch-clamp, HEK 293 cells transiently co-expressing hTRPC1 and hTRPC5", "protocol": "HEK T‐REx™ cell line was transfected with TRPC5‐SYFP2 or TRPC4‐SYFP2 using FuGENE® HD transfection reagent. After 48 hr, cells were put under antibiotic selection using 400 μg·ml^−1 zeocin and 10 μg·ml^−1 blasticidin S (Invivogen, San Diego, California, USA). Medium changes were carried out regularly to remove dead cells. HEK T‐REx cells expressing tetracycline‐inducible human TRPC5, TRPC4–C1, and TRPC5–C1 were created as described previously (Akbulut et al., 2015; Ludlow et al., 2017; Rubaiy, Ludlow, Henrot, et al., 2017). […]\nFor electrophysiology experiments, cells were plated at a low density of 20–30% onto round or square glass coverslips (13 mm diameter or 5 × 5 mm), and TRPC expression in HEK T‐REx was induced with 1 μg·ml^−1 tetracycline 24 hr before experimentation. […] The patch‐clamp currents were recorded using Axopatch 200B or HEKA EPC‐800 amplifiers, digitized by a Digidata 1440 or PCI6229 (National Instruments Japan, Tokyo, Japan) and recorded to a computer using pCLAMP10 (Molecular Devices) or WinWCPV4.5 (developed by Dr John Dempster, University of Strathclyde, UK). […]"}, "TRPC5–C1 channels": {"target": "TRPC5–C1 channels (Homo sapiens, UniProt P48995+Q9UL62)", "sequence (Q9UL62 whole entry)": "as the sequence (Q9UL62 whole entry) above", "sequence (P48995 whole entry)": "as the sequence (P48995 whole entry) above", "assay": "[Ca2+]i measurement in (Tet+) HEK T-REx cells expressing hTRPC5-C1 concatemer", "protocol": "as §1"}}, "data": [{"molecule": "Cn1c(=O)n(CCCO)c(=O)c2c1nc(Oc1ccc(Cl)c(OC(F)(F)F)c1)n2Cc1ccc(Cl)cc1", "note": "[AM237]", "values": [{"measurement": "Hill slope, inhibition of EA response", "setting": "TRPC4:C1 channels", "value": "–1.3"}, {"measurement": "Effect of pretreatment on basal [Ca2+]i", "setting": "TRPC4:C1 channels; 0.03–30 nM AM237", "value": "did not affect"}, {"measurement": "Activation upon acute administration ([Ca2+]i)", "setting": "TRPC4:C1 channels; 3-300 nM AM237", "value": "lack of activation"}, {"measurement": "Inhibition of inward and outward currents induced by EA", "setting": "TRPC1:C5 channels; 30 nM EA, at 3 to 100 nM AM237", "value": "full inhibition"}, {"measurement": "Activation of TRPC1:C5 currents", "setting": "TRPC1:C5 channels; outside-out patch", "value": "did not activate"}, {"measurement": "Hill slope, inhibition of EA response", "setting": "TRPC5–C1 channels", "value": -1.2}, {"measurement": "Effect of pre-incubation on basal [Ca2+]i", "setting": "TRPC5–C1 channels; 0.1–100 nM AM237", "value": "did not raise"}, {"measurement": "Activation upon acute administration ([Ca2+]i)", "setting": "TRPC5–C1 channels; 3-300 nM AM237", "value": "lack of activation"}]}]}
